Reference: the Kinase Knowledgebase extract (Sharma et al. 2016)

Columns and labels:
PIK3CA (human) [1] = target: PIK3CA (human) (UniProt P42336); assay: Assessment of PIK3CA Kinase Activity in NZOV9 Cells
PIK3CA (human) [2] = target: PIK3CA (human) (UniProt P42336); assay: Assessment of PIK3CA Kinase Activity in NZB5 Cells

PIK3CA (human), sequence (P42336 whole entry, looked up): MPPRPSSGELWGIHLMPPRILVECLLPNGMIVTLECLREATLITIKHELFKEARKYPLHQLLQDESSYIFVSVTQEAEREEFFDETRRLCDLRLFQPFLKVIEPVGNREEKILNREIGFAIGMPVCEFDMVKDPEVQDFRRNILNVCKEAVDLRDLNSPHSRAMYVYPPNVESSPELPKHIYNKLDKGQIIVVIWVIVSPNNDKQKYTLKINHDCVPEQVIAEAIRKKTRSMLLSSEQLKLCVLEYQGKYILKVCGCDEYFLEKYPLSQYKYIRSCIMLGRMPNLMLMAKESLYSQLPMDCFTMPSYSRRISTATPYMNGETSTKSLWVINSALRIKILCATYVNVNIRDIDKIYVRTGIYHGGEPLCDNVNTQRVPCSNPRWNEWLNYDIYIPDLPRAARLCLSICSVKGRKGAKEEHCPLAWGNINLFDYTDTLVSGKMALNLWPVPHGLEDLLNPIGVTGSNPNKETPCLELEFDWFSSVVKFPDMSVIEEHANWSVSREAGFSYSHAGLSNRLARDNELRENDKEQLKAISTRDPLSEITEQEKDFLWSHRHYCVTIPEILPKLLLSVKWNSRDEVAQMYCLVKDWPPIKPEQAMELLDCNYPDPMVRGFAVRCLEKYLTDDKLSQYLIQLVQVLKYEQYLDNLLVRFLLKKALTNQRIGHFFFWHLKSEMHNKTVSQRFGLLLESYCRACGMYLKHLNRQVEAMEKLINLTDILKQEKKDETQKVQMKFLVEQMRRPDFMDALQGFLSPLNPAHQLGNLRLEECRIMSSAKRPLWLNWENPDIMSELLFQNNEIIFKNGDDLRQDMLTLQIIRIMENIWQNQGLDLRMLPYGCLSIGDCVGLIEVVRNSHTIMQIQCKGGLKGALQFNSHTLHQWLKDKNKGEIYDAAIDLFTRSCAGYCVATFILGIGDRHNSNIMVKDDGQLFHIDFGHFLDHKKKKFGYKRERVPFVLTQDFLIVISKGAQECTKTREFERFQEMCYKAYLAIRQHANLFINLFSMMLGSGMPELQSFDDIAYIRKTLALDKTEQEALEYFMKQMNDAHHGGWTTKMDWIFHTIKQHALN

Structure (SMILES) | IC50 (PIK3CA (human) [1]) | IC50 (PIK3CA (human) [2])
Cc1ccc([N+](=O)[O-])cc1C(=O)N(C)N=Cc1cnn2ccc(C#N)cc12 | > 20 µM | > 20 µM
CN(C)c1ccc([N+](=O)[O-])cc1S(=O)(=O)N(C)N=Cc1cnn2ccc(C#N)cc12 | 0.1 µM | 
Cc1ccc(C(=O)O)cc1S(=O)(=O)N(C)N=Cc1cnn2ccc(C#N)cc12 | > 20 µM | > 20 µM
CC(=O)Nc1ccc(C)c(S(=O)(=O)N(C)N=Cc2cnn3ccc(C#N)cc23)c1 | > 20 µM | > 20 µM
Cc1cc([N+](=O)[O-])ccc1S(=O)(=O)N(C)N=Cc1cnn2ccc(C#N)cc12 | > 20 µM | > 20 µM
Cc1ccc(F)cc1S(=O)(=O)N(C)N=Cc1cnn2ccc(C#N)cc12 |  | > 20 µM
Cc1ccccc1S(=O)(=O)N(C)N=Cc1cnn2ccc(C#N)cc12 |  | > 20 µM
Cc1c([N+](=O)[O-])cccc1S(=O)(=O)N(C)N=Cc1cnn2ccc(C#N)cc12 | > 20 µM | > 20 µM
